How the values were obtained:
Format in all cases: in vivo
Details in all cases: evaluated after 13 days
[1] = tested on: Ipomoea hederacea (IPOHE); test: Pre-emergence Test (Table B1), IPOHE
[2] = tested on: Echinochloa crus-galli (ECHCG); test: Pre-emergence Test (Table B1), ECHCG
[3] = tested on: Amaranthus retoflexus (AMARE); test: Post-emergence Test (Table B2), AMARE; design: key: five-point scale: 5=81-100%, 4=61-80%, 3=41-60%, 2=21-40%, 1=0-20% damage
Method: (§1) Seeds of a variety of test species are sown in standard soil in pots (Ipomoea hederacea (IPOHE), Zea mays (ZEAMX), Echinochloa crus-galli (ECHCG), Amaranthus palmeri (AMAPA), (Amaranthus retoflexus (AMARE), and (Setaria faberi (SETFA)). After 8 days cultivation under controlled conditions in a glasshouse (at 24° C./16° C., day/night; 14 hours light; 65% humidity), the plants are sprayed with an aqueous spray solution derived from the formulation of the technical active ingredient in acetone/water (50:50) solution containing 0.5% Tween 20 (polyoxyethelyene sorbitan monolaurate, CAS RN 9005-64-5). Rate of application is shown in g/ha in the tables below. The test plants are then grown in a glasshouse under controlled conditions in a glasshouse (at 24° C./16° C., day/night; 14 hours light; 65% humidity) and watered twice daily. After 13 days the test is evaluated for the percentage damage caused to the plant. The biological activities are shown in the following table on a five-point scale (5=81-100%; 4=61-80%; 3=41-60%; 2=21-40%; 1=0-20%; -=not tested).

[4] = tested on: Zea mays (ZEAMX); test: Pre-emergence Test (Table B1), ZEAMX
[5] = tested on: Amaranthus retoflexus (AMARE); test: Pre-emergence Test (Table B1), AMARE
[6] = tested on: Amaranthus palmeri (AMAPA); test: Pre-emergence Test (Table B1), AMAPA
[7] = tested on: Amaranthus palmeri (AMAPA); test: Post-emergence Test (Table B2), AMAPA; design: key: five-point scale: 5=81-100%, 4=61-80%, 3=41-60%, 2=21-40%, 1=0-20% damage
Method: as §1

[8] = tested on: Echinochloa crus-galli (ECHCG); test: Post-emergence Test (Table B2), ECHCG; design: key: 5-point damage scale: 5=81-100%, 4=61-80%, 3=41-60%, 2=21-40%, 1=0-20%
Method: as §1

[9] = tested on: Zea mays (ZEAMX); test: Post-emergence Test (Table B2), ZEAMX; design: key: 5-point damage scale: 5=81-100%, 4=61-80%, 3=41-60%, 2=21-40%, 1=0-20%
In short: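 Score: % damage at 13 d on a 5-point scale (5=81-100%; 4=61-80%; 3=41-60%; 2=21-40%; 1=0-20%). Seeds sown in pots, sprayed with test article in acetone/water 50:50 + 0.5% Tween 20; rate in g/ha. Glasshouse 24/16 °C, 14 h light, 65% RH, watered twice daily.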

[10] = tested on: Setaria faberi (SETFA); test: Post-emergence Test (Table B2), SETFA; design: key: five-point scale: 5=81-100%, 4=61-80%, 3=41-60%, 2=21-40%, 1=0-20% damage
Method: as §1

CCn1c(Cc2ccccc2)cc(=O)c(C(=O)O)c1-c1ccc(Cl)c(Cl)c1 [Compound 3, 6-benzyl-2-(3,4-dichlorophenyl)-1-ethyl-4-oxo-pyridine-3-carboxylic acid]
0: Pre-emergence Test, percentage damage caused to the plant (five-point scale), IPOHE ([1]; Rate 1000 g/Ha) | Pre-emergence Test, percentage damage caused to the plant (five-point scale), ECHCG ([2]; Rate 1000 g/Ha) | percentage damage caused to the plant, AMARE ([3]; rate 1000 g/Ha) | Pre-emergence Test, percentage damage caused to the plant (five-point scale), ZEAMX ([4]; Rate 1000 g/Ha)

CCn1c(Cc2cncc(Cl)c2)cc(=O)c(C(=O)O)c1-c1ccc(Cl)c(Cl)c1 [Compound 17, 6-[(5-chloro-3-pyridyl)methyl]-2-(3,4-dichlorophenyl]-1-ethyl-4-oxo-pyridine-3-carboxylic acid]
0: Pre-emergence Test, percentage damage caused to the plant (five-point scale), IPOHE ([1]; Rate 250 g/Ha) | Pre-emergence Test, percentage damage caused to the plant (five-point scale), AMARE ([5]; Rate 250 g/Ha) | Pre-emergence Test, percentage damage caused to the plant (five-point scale), ECHCG ([2]; Rate 250 g/Ha) | Pre-emergence Test, percentage damage caused to the plant (five-point scale), AMAPA ([6]; Rate 250 g/Ha) | percentage damage caused to the plant, AMAPA ([7]; rate 250 g/Ha) | percentage damage caused to the plant, ECHCG ([8]; rate 250 g/Ha) | percentage damage caused to the plant, AMARE ([3]; rate 250 g/Ha) | percentage damage caused to the plant, ZEAMX ([9]; rate 250 g/Ha) | Pre-emergence Test, percentage damage caused to the plant (five-point scale), ZEAMX ([4]; Rate 250 g/Ha)

CCn1c(Cc2ccc(F)cc2Cl)cc(=O)c(C(=O)O)c1-c1ccc(Cl)c(Cl)c1 [Compound 68, 6-[(2-chloro-4-fluoro-phenyl)methyl]-2-(3,4-dichlorophenyl)-1-ethyl-4-oxo-3-pyridine-3-carboxylic acid]
0: Pre-emergence Test, percentage damage caused to the plant (five-point scale), IPOHE ([1]; Rate 1000 g/Ha) | percentage damage caused to the plant, AMAPA ([7]; rate 1000 g/Ha) | percentage damage caused to the plant, ECHCG ([8]; rate 1000 g/Ha) | percentage damage caused to the plant, AMARE ([3]; rate 1000 g/Ha) | Pre-emergence Test, percentage damage caused to the plant (five-point scale), ZEAMX ([4]; Rate 1000 g/Ha)

CCn1c(Cc2ccnc(C(F)(F)F)c2)cc(=O)c(C(=O)O)c1-c1ccc(Cl)c(Cl)c1 [Compound 21, 2-(3,4-dichlorophenyl)-1-ethyl-4-oxo-6-[[2-(trifluoromethyl)-4-pyridyl]methyl]pyridine-3-carboxylic acid]
0: percentage damage caused to the plant, AMAPA ([7]; rate 250 g/Ha) | percentage damage caused to the plant, AMARE ([3]; rate 250 g/Ha)

CCn1c(Cc2cc(Cl)cc(Cl)c2)cc(=O)c(C(=O)O)c1-c1ccc(Cl)c(Cl)c1 [Compound 10, 2-(3,4-dichlorophenyl)-6-[(3,5-dichlorophenyl)methyl]-1-ethyl-4-oxo-pyridine-3-carboxylic acid]
0: percentage damage caused to the plant, SETFA ([10]; rate 1000 g/Ha) | percentage damage caused to the plant, ECHCG ([8]; rate 1000 g/Ha) | percentage damage caused to the plant, ZEAMX ([9]; rate 1000 g/Ha)

CCn1c(Cc2cc(C)n(C)n2)cc(=O)c(C(=O)O)c1-c1ccc(Cl)c(Cl)c1 [Compound 120, 2-(3,4-dichlorophenyl)-6-[(1,5-dimethylpyrazol-3-yl)methyl]-1-ethyl-4-oxo-pyridine-3-carboxylic acid]
0: Pre-emergence Test, percentage damage caused to the plant (five-point scale), IPOHE ([1]; Rate 250 g/Ha) | Pre-emergence Test, percentage damage caused to the plant (five-point scale), AMARE ([5]; Rate 250 g/Ha) | Pre-emergence Test, percentage damage caused to the plant (five-point scale), ECHCG ([2]; Rate 250 g/Ha) | Pre-emergence Test, percentage damage caused to the plant (five-point scale), AMAPA ([6]; Rate 250 g/Ha) | percentage damage caused to the plant, AMAPA ([7]; rate 250 g/Ha) | percentage damage caused to the plant, AMARE ([3]; rate 250 g/Ha) | Pre-emergence Test, percentage damage caused to the plant (five-point scale), ZEAMX ([4]; Rate 250 g/Ha)

CCn1c(Cc2ccc(C)c(C#N)n2)cc(=O)c(C(=O)O)c1-c1ccc(Cl)c(Cl)c1 [Compound 113, 6-[(6-cyano-5-methyl-2-pyridyl)methyl]-2-(3,4-dichlorophenyl)-1-ethyl-4-oxo-pyridine-3-carboxylic acid]
0: Pre-emergence Test, percentage damage caused to the plant (five-point scale), AMARE ([5]; Rate 250 g/Ha) | Pre-emergence Test, percentage damage caused to the plant (five-point scale), AMAPA ([6]; Rate 250 g/Ha) | percentage damage caused to the plant, AMAPA ([7]; rate 250 g/Ha) | percentage damage caused to the plant, AMARE ([3]; rate 250 g/Ha) | Pre-emergence Test, percentage damage caused to the plant (five-point scale), ZEAMX ([4]; Rate 250 g/Ha)

CCn1c(Cc2nc(C(=O)OC)co2)cc(=O)c(C(=O)O)c1-c1ccc(Cl)c(Cl)c1 [Compound 148, 2-(3,4-dichlorophenyl)-1-ethyl-6-[(4-methoxycarbonyloxazol-2-yl)methyl]-4-oxo-pyridine-3-carboxylic acid]
0: Pre-emergence Test, percentage damage caused to the plant (five-point scale), IPOHE ([1]; Rate 250 g/Ha) | Pre-emergence Test, percentage damage caused to the plant (five-point scale), ECHCG ([2]; Rate 250 g/Ha) | percentage damage caused to the plant, AMAPA ([7]; rate 250 g/Ha) | percentage damage caused to the plant, ZEAMX ([9]; rate 250 g/Ha) | Pre-emergence Test, percentage damage caused to the plant (five-point scale), ZEAMX ([4]; Rate 250 g/Ha)

CCn1c(Cc2ccccc2C)cc(=O)c(C(=O)O)c1-c1ccc(Cl)c(Cl)c1 [Compound 15, 2-(3,4-dichlorophenyl)-1-ethyl-6-(o-tolylmethyl)-4-oxo-pyridine-3-carboxylic acid]
0: percentage damage caused to the plant, SETFA ([10]; rate 1000 g/Ha) | percentage damage caused to the plant, ECHCG ([8]; rate 1000 g/Ha)

CCn1c(Cc2ccc(OC)c(Cl)c2)cc(=O)c(C(=O)O)c1-c1ccc(Cl)c(Cl)c1 [Compound 86, 6-[(3-chloro-4-methoxy-phenyl)methyl]-2-(3,4-dichlorophenyl)-1-ethyl-4-oxo-pyridine-3-carboxylic acid]
0: Pre-emergence Test, percentage damage caused to the plant (five-point scale), IPOHE ([1]; Rate 250 g/Ha) | Pre-emergence Test, percentage damage caused to the plant (five-point scale), AMAPA ([6]; Rate 250 g/Ha) | percentage damage caused to the plant, AMAPA ([7]; rate 250 g/Ha) | percentage damage caused to the plant, AMARE ([3]; rate 250 g/Ha) | Pre-emergence Test, percentage damage caused to the plant (five-point scale), ZEAMX ([4]; Rate 250 g/Ha)

CCn1c(Cc2nc(OC)cc(OC)n2)cc(=O)c(C(=O)O)c1-c1ccc(Cl)c(Cl)c1 [Compound 126, 2-(3,4-dichlorophenyl)-6-[(4,6-dimethoxypyrimidin-2-yl)methyl]-1-ethyl-4-oxo-pyridine-3-carboxylic acid]
0: percentage damage caused to the plant, AMAPA ([7]; rate 250 g/Ha) | percentage damage caused to the plant, AMARE ([3]; rate 250 g/Ha) | Pre-emergence Test, percentage damage caused to the plant (five-point scale), ZEAMX ([4]; Rate 250 g/Ha)

CCn1c(Cc2cc(C)on2)cc(=O)c(C(=O)O)c1-c1ccc(Cl)c(Cl)c1 [Compound 135, 2-(3,4-dichlorophenyl)-1-ethyl-6-[(5-methylisoxazol-3-yl)methyl]-4-oxo-pyridine-3-carboxylic acid]
0: Pre-emergence Test, percentage damage caused to the plant (five-point scale), IPOHE ([1]; Rate 250 g/Ha) | Pre-emergence Test, percentage damage caused to the plant (five-point scale), ECHCG ([2]; Rate 250 g/Ha) | Pre-emergence Test, percentage damage caused to the plant (five-point scale), AMAPA ([6]; Rate 250 g/Ha) | percentage damage caused to the plant, SETFA ([10]; rate 250 g/Ha) | percentage damage caused to the plant, ECHCG ([8]; rate 250 g/Ha) | Pre-emergence Test, percentage damage caused to the plant (five-point scale), ZEAMX ([4]; Rate 250 g/Ha)

CCn1c(Cc2ccc(OC)cc2Cl)cc(=O)c(C(=O)O)c1-c1ccc(Cl)c(Cl)c1 [Compound 69, 6-[(2-chloro-4-methoxy-phenyl)methyl]-2-(3,4-dichlorophenyl)-1-ethyl-4-oxo-pyridine-3-carboxylic acid]
0: Pre-emergence Test, percentage damage caused to the plant (five-point scale), IPOHE ([1]; Rate 1000 g/Ha) | Pre-emergence Test, percentage damage caused to the plant (five-point scale), AMARE ([5]; Rate 1000 g/Ha) | Pre-emergence Test, percentage damage caused to the plant (five-point scale), AMAPA ([6]; Rate 1000 g/Ha) | percentage damage caused to the plant, AMAPA ([7]; rate 1000 g/Ha) | percentage damage caused to the plant, ECHCG ([8]; rate 1000 g/Ha) | percentage damage caused to the plant, AMARE ([3]; rate 1000 g/Ha) | Pre-emergence Test, percentage damage caused to the plant (five-point scale), ZEAMX ([4]; Rate 1000 g/Ha)

CCn1c(Cc2ccc(F)c(Cl)c2)cc(=O)c(C(=O)O)c1-c1ccc(Cl)c(Cl)c1 [Compound 75, 6-[(3-chloro-4-fluoro-phenyl)methyl]-2-(3,4-dichlorophenyl)-1-ethyl-4-oxo-pyridine-3-carboxylic acid]
0: percentage damage caused to the plant, AMAPA ([7]; rate 1000 g/Ha) | percentage damage caused to the plant, AMARE ([3]; rate 1000 g/Ha) | percentage damage caused to the plant, ZEAMX ([9]; rate 1000 g/Ha) | Pre-emergence Test, percentage damage caused to the plant (five-point scale), ZEAMX ([4]; Rate 1000 g/Ha)

From US20260013501A1, “HERBICIDAL DERIVATIVES” (SYNGENTA CROP PROTECTION AG, priority 2022, published 2026)
